Measured values reported in ChEMBL document CHEMBL1151868, “Identification of pyrazolo[1,5-a]pyrimidine-3-carboxylates as B-Raf kinase inhibitors” (Bioorg Med Chem Lett, 2009).

Legend:
[1] = molecular target: Serine/threonine-protein kinase B-raf (Homo sapiens, UniProt P15056); test: Inhibition of human recombinant B-Raf expressed in Sf9 cells assessed as inhibition of Mek1 phosphorylation
[2] = test system: BXPC-3; test: Growth inhibition of human BxPC3 cells; format: functional, cell-based
[3] = test system: HT-29; test: Growth inhibition of human HT-29 cells; format: functional, cell-based
[4] = test system: A-375; test: Growth inhibition of human A375 cells; format: functional, cell-based
[5] = test system: SW-620; test: Growth inhibition of human SW620 cells; format: functional, cell-based
[6] = test system: LoVo; test: Growth inhibition of human LoVo cells; format: functional, cell-based
[7] = Growth inhibition of human WM266.4 cells; format: functional, cell-based; conditions: WM 266-4
[8] = test system: Caco-2; test: Growth inhibition of human Caco-2 cells; format: functional, cell-based
[9] = molecular target: Serine/threonine-protein kinase mTOR (Homo sapiens, UniProt P42345); test: Inhibition of mTOR
[10] = molecular target: RAC-alpha serine/threonine-protein kinase (Homo sapiens, UniProt P31749); test: Inhibition of AKT
Sequence of RAC-alpha serine/threonine-protein kinase (P31749 whole entry): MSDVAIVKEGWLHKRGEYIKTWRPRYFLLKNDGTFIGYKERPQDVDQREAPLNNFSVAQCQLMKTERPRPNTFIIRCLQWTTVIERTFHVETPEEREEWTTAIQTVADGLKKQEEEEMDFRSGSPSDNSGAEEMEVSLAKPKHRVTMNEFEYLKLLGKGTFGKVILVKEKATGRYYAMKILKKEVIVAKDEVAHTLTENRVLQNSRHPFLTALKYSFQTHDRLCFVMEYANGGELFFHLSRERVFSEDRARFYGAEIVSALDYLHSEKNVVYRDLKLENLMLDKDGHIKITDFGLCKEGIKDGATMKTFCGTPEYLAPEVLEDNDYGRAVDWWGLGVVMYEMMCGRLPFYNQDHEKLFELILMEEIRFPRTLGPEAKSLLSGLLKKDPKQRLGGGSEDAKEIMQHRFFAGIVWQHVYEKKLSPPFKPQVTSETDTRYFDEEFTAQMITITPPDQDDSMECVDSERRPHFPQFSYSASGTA

[11] = molecular target: Cyclin-dependent kinase 4 (Homo sapiens, UniProt P11802); test: Inhibition of CDK4
Sequence of Cyclin-dependent kinase 4 (P11802 whole entry): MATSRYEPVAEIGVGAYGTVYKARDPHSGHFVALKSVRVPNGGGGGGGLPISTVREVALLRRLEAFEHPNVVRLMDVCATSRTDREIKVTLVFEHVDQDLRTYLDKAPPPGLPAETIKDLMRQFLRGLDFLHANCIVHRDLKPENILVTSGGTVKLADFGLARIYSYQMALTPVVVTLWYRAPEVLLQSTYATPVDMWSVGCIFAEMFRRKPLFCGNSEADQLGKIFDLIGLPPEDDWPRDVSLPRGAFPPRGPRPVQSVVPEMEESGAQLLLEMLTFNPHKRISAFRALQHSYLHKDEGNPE

[12] = molecular target: Tyrosine-protein kinase Lck (Homo sapiens, UniProt P06239); test: Inhibition of LCK
Sequence of Tyrosine-protein kinase Lck (P06239 whole entry): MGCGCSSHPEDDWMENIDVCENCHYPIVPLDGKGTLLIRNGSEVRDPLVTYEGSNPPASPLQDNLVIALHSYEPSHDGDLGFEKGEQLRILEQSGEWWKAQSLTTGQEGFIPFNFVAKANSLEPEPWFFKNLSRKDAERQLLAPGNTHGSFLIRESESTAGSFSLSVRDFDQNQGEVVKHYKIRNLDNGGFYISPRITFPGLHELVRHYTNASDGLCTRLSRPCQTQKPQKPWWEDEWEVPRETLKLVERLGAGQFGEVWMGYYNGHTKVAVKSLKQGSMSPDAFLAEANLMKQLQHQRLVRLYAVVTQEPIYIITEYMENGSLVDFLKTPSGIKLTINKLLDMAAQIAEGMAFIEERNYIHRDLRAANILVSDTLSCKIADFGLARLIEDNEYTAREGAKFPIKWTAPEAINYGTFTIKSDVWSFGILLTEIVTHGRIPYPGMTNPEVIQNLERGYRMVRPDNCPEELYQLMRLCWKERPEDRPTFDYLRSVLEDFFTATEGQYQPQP

[13] = molecular target: Tyrosine-protein kinase Lyn (Homo sapiens, UniProt P07948); test: Inhibition of LYN
Sequence of Tyrosine-protein kinase Lyn (P07948 whole entry): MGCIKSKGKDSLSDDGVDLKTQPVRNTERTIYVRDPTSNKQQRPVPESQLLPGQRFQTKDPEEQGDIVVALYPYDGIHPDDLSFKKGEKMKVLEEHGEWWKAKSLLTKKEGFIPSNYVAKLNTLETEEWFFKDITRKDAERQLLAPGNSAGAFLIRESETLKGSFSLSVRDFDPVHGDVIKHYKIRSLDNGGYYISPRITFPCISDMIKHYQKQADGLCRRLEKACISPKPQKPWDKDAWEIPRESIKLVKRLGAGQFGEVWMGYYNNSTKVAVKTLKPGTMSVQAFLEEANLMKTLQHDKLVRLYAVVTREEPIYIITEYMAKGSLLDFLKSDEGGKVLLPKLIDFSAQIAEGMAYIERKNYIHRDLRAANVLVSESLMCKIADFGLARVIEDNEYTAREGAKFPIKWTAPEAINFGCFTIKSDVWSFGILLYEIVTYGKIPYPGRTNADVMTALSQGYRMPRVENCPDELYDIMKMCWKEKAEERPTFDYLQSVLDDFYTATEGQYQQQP

[14] = molecular target: Vascular endothelial growth factor receptor 2 (Homo sapiens, UniProt P35968); test: Inhibition of KDR
[15] = molecular target: Insulin-like growth factor 1 receptor (Homo sapiens, UniProt P08069); test: Inhibition of IGFR1
Sequence of Insulin-like growth factor 1 receptor (P08069 31-736 limits assumed): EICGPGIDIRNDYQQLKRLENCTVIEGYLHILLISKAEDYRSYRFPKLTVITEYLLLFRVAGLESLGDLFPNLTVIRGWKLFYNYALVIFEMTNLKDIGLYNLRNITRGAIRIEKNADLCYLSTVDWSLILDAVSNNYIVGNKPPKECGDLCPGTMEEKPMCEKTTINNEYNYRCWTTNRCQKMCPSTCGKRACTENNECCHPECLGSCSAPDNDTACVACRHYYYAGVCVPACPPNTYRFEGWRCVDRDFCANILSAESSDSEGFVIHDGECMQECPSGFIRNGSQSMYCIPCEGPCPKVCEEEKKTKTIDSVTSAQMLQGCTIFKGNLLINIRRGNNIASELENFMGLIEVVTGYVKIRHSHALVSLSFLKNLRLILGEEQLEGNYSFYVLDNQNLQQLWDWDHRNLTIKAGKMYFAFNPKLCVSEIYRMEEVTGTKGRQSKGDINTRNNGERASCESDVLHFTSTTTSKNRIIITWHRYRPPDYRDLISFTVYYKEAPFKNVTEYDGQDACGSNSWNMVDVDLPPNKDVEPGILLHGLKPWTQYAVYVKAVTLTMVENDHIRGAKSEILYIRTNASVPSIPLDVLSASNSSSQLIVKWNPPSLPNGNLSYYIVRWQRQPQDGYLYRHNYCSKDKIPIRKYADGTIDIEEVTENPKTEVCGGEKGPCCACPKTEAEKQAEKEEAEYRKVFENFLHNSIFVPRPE
Sequence of Insulin-like growth factor 1 receptor (P08069 741-1367 limits assumed): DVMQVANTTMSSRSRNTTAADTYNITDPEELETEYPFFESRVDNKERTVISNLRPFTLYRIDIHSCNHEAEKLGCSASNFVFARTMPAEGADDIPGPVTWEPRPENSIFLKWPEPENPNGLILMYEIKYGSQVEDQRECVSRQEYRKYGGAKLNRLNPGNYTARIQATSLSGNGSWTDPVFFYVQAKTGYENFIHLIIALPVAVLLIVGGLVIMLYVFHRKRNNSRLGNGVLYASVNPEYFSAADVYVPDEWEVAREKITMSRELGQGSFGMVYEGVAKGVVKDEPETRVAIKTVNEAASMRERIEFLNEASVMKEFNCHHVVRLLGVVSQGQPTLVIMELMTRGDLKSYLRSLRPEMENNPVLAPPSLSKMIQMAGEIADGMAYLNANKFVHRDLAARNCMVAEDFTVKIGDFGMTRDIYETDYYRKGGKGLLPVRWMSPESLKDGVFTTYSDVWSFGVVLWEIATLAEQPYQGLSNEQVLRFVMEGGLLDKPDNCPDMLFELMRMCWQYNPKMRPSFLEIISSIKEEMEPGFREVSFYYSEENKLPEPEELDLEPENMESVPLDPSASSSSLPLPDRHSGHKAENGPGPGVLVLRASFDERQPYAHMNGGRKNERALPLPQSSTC

[16] = molecular target: Phosphatidylinositol 4,5-bisphosphate 3-kinase catalytic subunit alpha isoform (Homo sapiens, UniProt P42336); test: Inhibition of PI3Kalpha
[17] = molecular target: Proto-oncogene tyrosine-protein kinase Src (Homo sapiens, UniProt P12931); test: Inhibition of SRC
Sequence of Proto-oncogene tyrosine-protein kinase Src (P12931 2-536 limits assumed): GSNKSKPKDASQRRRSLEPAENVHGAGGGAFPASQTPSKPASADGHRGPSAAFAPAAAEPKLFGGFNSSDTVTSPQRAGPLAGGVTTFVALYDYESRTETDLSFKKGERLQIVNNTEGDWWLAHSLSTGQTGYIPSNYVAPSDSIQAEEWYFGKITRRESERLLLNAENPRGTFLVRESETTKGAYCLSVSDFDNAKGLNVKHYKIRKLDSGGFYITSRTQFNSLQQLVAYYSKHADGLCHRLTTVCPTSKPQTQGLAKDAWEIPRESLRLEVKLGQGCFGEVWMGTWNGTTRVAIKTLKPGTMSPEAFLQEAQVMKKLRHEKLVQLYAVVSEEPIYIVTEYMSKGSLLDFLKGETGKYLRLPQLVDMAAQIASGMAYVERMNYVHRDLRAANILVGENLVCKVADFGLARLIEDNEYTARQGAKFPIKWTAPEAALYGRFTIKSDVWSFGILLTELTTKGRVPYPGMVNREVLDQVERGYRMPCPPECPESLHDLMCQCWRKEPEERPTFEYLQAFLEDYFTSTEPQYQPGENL

[18] = molecular target: Mitogen-activated protein kinase kinase kinase 8 (Homo sapiens, UniProt P41279); test: Inhibition of Tpl2
Sequence of Mitogen-activated protein kinase kinase kinase 8 (P41279 whole entry): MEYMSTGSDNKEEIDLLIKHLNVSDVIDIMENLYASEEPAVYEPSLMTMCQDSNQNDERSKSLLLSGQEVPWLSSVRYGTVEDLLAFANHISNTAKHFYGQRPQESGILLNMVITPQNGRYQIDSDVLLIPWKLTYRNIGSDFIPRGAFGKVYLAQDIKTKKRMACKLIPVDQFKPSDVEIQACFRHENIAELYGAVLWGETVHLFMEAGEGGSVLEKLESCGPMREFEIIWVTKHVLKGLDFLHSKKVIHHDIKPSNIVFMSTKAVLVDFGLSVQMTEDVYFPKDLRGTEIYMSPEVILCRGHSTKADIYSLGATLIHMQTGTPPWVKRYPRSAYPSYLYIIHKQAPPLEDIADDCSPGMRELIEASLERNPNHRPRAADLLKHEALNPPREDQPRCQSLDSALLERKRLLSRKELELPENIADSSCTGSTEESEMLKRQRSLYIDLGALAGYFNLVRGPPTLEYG

[19] = molecular target: Tyrosine-protein kinase BTK (Homo sapiens, UniProt Q06187); test: Inhibition of BTK

Sequence of Serine/threonine-protein kinase B-raf (P15056 whole entry): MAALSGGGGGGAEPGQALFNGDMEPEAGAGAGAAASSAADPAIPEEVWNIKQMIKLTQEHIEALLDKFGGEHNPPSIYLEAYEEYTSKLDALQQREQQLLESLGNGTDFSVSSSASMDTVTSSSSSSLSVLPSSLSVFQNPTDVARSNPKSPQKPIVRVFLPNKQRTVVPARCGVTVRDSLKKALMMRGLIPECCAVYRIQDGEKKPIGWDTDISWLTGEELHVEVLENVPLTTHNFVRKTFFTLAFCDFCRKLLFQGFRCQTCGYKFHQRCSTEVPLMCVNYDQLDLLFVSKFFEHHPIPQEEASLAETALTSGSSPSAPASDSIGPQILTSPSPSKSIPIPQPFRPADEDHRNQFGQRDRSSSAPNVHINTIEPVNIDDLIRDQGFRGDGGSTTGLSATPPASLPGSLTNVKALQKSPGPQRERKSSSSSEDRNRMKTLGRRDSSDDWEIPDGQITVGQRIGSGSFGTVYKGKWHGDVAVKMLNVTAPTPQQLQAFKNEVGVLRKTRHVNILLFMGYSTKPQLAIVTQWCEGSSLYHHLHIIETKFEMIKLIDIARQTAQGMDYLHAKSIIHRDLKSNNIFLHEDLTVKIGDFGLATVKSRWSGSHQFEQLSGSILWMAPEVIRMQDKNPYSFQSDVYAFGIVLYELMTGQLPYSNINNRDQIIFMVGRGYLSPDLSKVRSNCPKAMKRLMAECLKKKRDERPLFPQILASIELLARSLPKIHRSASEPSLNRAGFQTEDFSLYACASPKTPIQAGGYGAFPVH

| Structure (SMILES) | IC50 [1] | further results |
| --- | --- | --- |
| CCOC(=O)c1cnn2c(-c3cccc(NC(=O)c4ccccc4)c3)ccnc12 | > 10 µM | – |
| O=C(Nc1cccc(-c2ccnc3c(C(=O)NCCN4CCOCC4)cnn23)c1)c1cccc(C(F)(F)F)c1 | 6.34 µM | – |
| O=C(Nc1cccc(-c2ccnc3c(C(=O)NCCN4CCOCC4)cnn23)c1)Nc1ccc(Cl)c(C(F)(F)F)c1 | 0.16 µM | – |
| CCOC(=O)c1cnn2c(-c3cccc(NC(=O)Nc4ccc(Cl)c(C(F)(F)F)c4)c3)ccnc12 | 0.36 µM | – |
| CCOC(=O)c1cnn2c(-c3cccc(NC(=O)Nc4cccc(Cl)c4)c3)ccnc12 | > 10 µM | – |
| CCOC(=O)c1cnn2c(-c3cccc(NC(=O)c4cccc(C#N)c4)c3)ccnc12 | > 10 µM | – |
| CCN(CC)CCNC(=O)c1cnn2c(-c3cccc(NC(=O)Nc4ccc(Cl)c(C(F)(F)F)c4)c3)ccnc12 | 0.17 µM | – |
| O=C(Nc1cccc(-c2ccnc3c(C(=O)OCC(F)(F)F)cnn23)c1)c1cccc(C(F)(F)F)c1 | 1.45 µM | – |
| COCCCNC(=O)c1cnn2c(-c3cccc(NC(=O)Nc4ccc(Cl)c(C(F)(F)F)c4)c3)ccnc12 | 0.27 µM | – |

Second part, led by results:

| IC50 [1] | Structure (SMILES) | further results |
| --- | --- | --- |
| 1.57 µM | CCOC(=O)c1cnn2c(-c3cccc(NC(=O)c4cccc(OC(F)(F)F)c4)c3)ccnc12 | – |
| 0.36 µM | CCOC(=O)c1cnn2c(-c3cccc(NC(=O)Nc4ccc(C)c(C(F)(F)F)c4)c3)ccnc12 | – |
| > 10 µM | CCOC(=O)c1cnn2c(-c3cccc(NC(=O)Nc4cc(C(F)(F)F)ccc4Cl)c3)ccnc12 | – |
| 3.6 µM | CCOC(=O)c1cnn2c(-c3cccc(NC(=O)Nc4ccc(C(F)(F)F)cc4)c3)ccnc12 | – |
| > 10 µM | CCOC(=O)c1cnn2c(-c3cccc(NC(=O)c4cc(C(F)(F)F)ccc4C)c3)ccnc12 | – |
| 0.24 µM | CCOC(=O)c1cnn2c(-c3cccc(NC(=O)Nc4ccc(F)c(C(F)(F)F)c4)c3)ccnc12 | – |
| 0.54 µM | CCOC(=O)c1cnn2c(-c3cccc(NC(=O)Nc4cccc(C(F)(F)F)c4)c3)ccnc12 | – |
| 1.54 µM | CCOC(=O)c1cnn2c(-c3cccc(NC(=O)c4cccc(C(F)(F)F)c4)c3)ccnc12 | IC50 [2]: 3.25 µM; IC50 [3]: 7 µM; IC50 [4]: 3.8 µM; IC50 [5]: 8.3 µM; IC50 [6]: 3.87 µM; IC50 [7]: 6.2 µM; IC50 [8]: 6.6 µM; IC50 [9]: > 10 µM; IC50 [10]: > 10 µM; IC50 [11]: > 10 µM; IC50 [12]: > 10 µM; IC50 [13]: > 10 µM; IC50 [14]: > 10 µM; IC50 [15]: > 10 µM; IC50 [16]: > 10 µM; IC50 [17]: > 10 µM; IC50 [18]: > 10 µM; IC50 [19]: > 10 µM |
| 1.03 µM | CCOC(=O)c1cnn2c(-c3cccc(NC(=O)c4ccc(OC)c(C(F)(F)F)c4)c3)ccnc12 | – |
| 4.27 µM | CCOC(=O)c1cnn2c(-c3cccc(NC(=O)c4ccc(Cl)c(C(F)(F)F)c4)c3)ccnc12 | – |
